Numbering of substitutions follows the chain as printed. Values joined by “and” are separate entries in the source; they are usually repeats but may differ in a detail not shown here. Identical values can stand only once. Like-named read-outs stand apart in the source and are kept apart here.
Assays:
[1] = molecular target: T1, human CYP11B1 wild type (Homo sapiens, UniProt P15538); test: Steady-state kinetics in reconstituted system (adrenodoxin reductase, adrenodoxin, NADPH), LC-MS/MS, wild type; assay type: biochemical
T1 sequence (P15538 28-503 limits assumed): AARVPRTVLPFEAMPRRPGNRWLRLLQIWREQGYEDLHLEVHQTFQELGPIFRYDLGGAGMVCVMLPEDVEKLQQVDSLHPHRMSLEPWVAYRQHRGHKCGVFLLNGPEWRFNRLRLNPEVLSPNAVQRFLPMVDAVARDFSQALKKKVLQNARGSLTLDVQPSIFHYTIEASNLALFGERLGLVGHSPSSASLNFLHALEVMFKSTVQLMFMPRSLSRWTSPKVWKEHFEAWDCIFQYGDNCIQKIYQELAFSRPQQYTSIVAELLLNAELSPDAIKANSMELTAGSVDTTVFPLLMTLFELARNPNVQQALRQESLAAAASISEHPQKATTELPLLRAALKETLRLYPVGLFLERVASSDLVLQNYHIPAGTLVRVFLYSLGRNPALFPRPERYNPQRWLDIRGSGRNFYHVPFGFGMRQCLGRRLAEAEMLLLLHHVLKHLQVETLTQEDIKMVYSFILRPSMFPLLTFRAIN

[2] = molecular target: T2, human CYP11B1 mutant (W49R, L50N, L53N, W56R, L244N, W247N) (Homo sapiens, UniProt P15538, L244N/L50N/L53N/W247N/W49R/W56R); test: Steady-state kinetics in reconstituted system (adrenodoxin reductase, adrenodoxin, NADPH), LC-MS/MS, mutant; assay type: biochemical; conditions: for Production of 18-hydroxy cortisol / 18-hydroxy corticosterone (11β,18-dihydroxylation): from DOF and DOC, respectively
T2 sequence (P15538 28-503 W49R/L50N/L53N/W56R/L244N/W247N limits assumed): T1 sequence (P15538 28-503 limits assumed) with W22R, L23N, L26N, W29R, L217N, W220N

[3] = test system: CYP11B2 Wild type; design: method as in ref [1] (a number printed in a supplementary file, which may have a reference list of its own: not looked up in the article's list); conditions: calculated from kcat values with substrate DOC, ref [1]; cited from earlier work
[4] = test system: CYP11B1 Wild type / CYP11B2 G288S; design: method as in ref [2, 3] (a number printed in a supplementary file, which may have a reference list of its own: not looked up in the article's list); conditions: group (ii); steroids produced from DOC, estimated against wild type controls; ref [2, 3]; cited from earlier work
[5] = test system: CYP11B1 S288G / CYP11B2 R181W/V386A; design: method as in ref [2, 3] (a number printed in a supplementary file, which may have a reference list of its own: not looked up in the article's list); conditions: group (iii); steroids produced from DOC, estimated against wild type controls; ref [2, 3]; cited from earlier work
[6] = test system: CYP11B1 S288G/V320A / CYP11B2 Wild type; design: method as in ref [2, 3] (a number printed in a supplementary file, which may have a reference list of its own: not looked up in the article's list); conditions: group (iv); steroids produced from DOC, estimated against wild type controls; ref [2, 3]; cited from earlier work
[7] = molecular target: T2, human CYP11B1 mutant (W49R, L50N, L53N, W56R, L244N, W247N); test: Spectroscopic titration of ferric enzyme (difference spectra), mutant; conditions: direct titration of ferric form, mean ± SE, n=3
Procedure: (§1) Affinities of the two enzymes for the substrates DOC or DOF and other ligands were determined by titration assays using the ferric forms.
Two forms, a wild type and a mutant, of recombinant human CYP11B1 were expressed as 486-amino acid residue polypeptide (Fig. S2).
Spectroscopic studies were carried out at room temperature using a Jasco UV–visible spectrophotometer V-530. Purified enzymes were diluted to 1.0 ​μM for the wild type and 0.8–1.2 ​μM for the mutant with the buffer consisting of 50 ​mM potassium phosphate (pH 7.4), 150 ​mM NaCl, 20% (v/v) glycerol, and 0.05% (v/v) Tween 20. Substrate DOC (Sigma) at 400 ​μM, sodium dithionite, and CO were added sequentially, and absolute spectra were recorded after each step. […] The data obtained with 5 ​mM Cymal-5 (Anatrace) in place of the substrate were also included in Fig. S4. Dissociation constants for steroids and ligands were determined from spectral changes caused by titration with increasing concentrations of them. Data were analyzed using non-linear regression (Prism 8, GraphPad Software) to calculate Kd values. […] The dissociation constants were calculated from the apparent values by using the Kd values for DOC as the inhibitory constants. […] The steroids and ligands used for spectroscopic analyses were dissolved in dimethyl sulfoxide.

[8] = molecular target: T1, human CYP11B1 wild type; test: Spectroscopic titration of ferric enzyme (difference spectra), wild type; conditions: for Spectral shift: one column for both wild type and mutant
Procedure: as §1
Spectroscopic studies were carried out at room temperature using a Jasco UV–visible spectrophotometer V-530. Purified enzymes were diluted to 1.0 ​μM for the wild type and 0.8–1.2 ​μM for the mutant with the buffer consisting of 50 ​mM potassium phosphate (pH 7.4), 150 ​mM NaCl, 20% (v/v) glycerol, and 0.05% (v/v) Tween 20. […] Dissociation constants for steroids and ligands were determined from spectral changes caused by titration with increasing concentrations of them. Data were analyzed using non-linear regression (Prism 8, GraphPad Software) to calculate Kd values. […] The dissociation constants were calculated from the apparent values by using the Kd values for DOC as the inhibitory constants. […] The steroids and ligands used for spectroscopic analyses were dissolved in dimethyl sulfoxide.

[9] = CYP11B1 wild type (this study), calculated from kcat values with substrate DOC
[10] = CYP11B1 mutant, calculated from kcat values with substrate DOC

SMILES: C[C@]12CC[C@H]3[C@@H](CCC4=CC(=O)CC[C@@]43C)[C@@H]1CC[C@@H]2C(=O)CO [DOC, 11-deoxycorticosterone]
- kcat, 11β,18-diOHase,18-oxidase [1]: 0 s⁻¹
- kcat, 11β,18-dihydroxylation [1]: 0.0108 s⁻¹
- kcat, 11β-hydroxylation [1]: 2.683 s⁻¹
- kcat, 18-hydroxylation [1]: 0.132 s⁻¹
- Relative activity (molar product ratio), 11b,18-diOHase [1, 9]: 0.4%
- Relative activity (molar product ratio), 11b,18-diOHase,18-oxidase [1, 9]: 0%
- Relative activity (molar product ratio), 11b-OHase [1, 9]: 94.9%
- Relative activity (molar product ratio), 18-OHase [1, 9]: 4.7%
- Production of aldosterone ([1]; Wild type, from DOC): not produced
- kcat, 11β,18-diOHase [2]: 0 s⁻¹
- kcat, 11β,18-diOHase,18-oxidase [2]: 0 s⁻¹
- kcat, 11β-hydroxylation [2]: 2.212 s⁻¹
- Relative activity (molar product ratio), 11b,18-diOHase [2, 10]: 0%
- Relative activity (molar product ratio), 11b,18-diOHase,18-oxidase [2, 10]: 0%
- Relative activity (molar product ratio), 11b-OHase [2, 10]: 95.8%
- Relative activity (molar product ratio), 18-OHase [2, 10]: 4.2%
- Production of aldosterone ([2]; Mutant, from DOC): not produced
- Production of 18-hydroxy cortisol / 18-hydroxy corticosterone (11β,18-dihydroxylation) ([2]; Mutant): did not produce
- Relative activity (molar product ratio), 11b,18-diOHase [3]: 2.7%
- Relative activity (molar product ratio), 11b,18-diOHase,18-oxidase [3]: 0.5%
- Relative activity (molar product ratio), 11b-OHase [3]: 92.6%
- Relative activity (molar product ratio), 18-OHase [3]: 4.2%
- Activity class, 11b,18-diOHase [4]: + (Percentages 0, >0 and ≤1, >1 and ≤10, and >10 are indicated by (-), (+), (++), and (+++), respectively)
- Activity class, 11b,18-diOHase,18-oxidase [4]: - (Percentages 0, >0 and ≤1, >1 and ≤10, and >10 are indicated by (-), (+), (++), and (+++), respectively)
- Activity class, 11b-OHase [4]: +++ (Percentages 0, >0 and ≤1, >1 and ≤10, and >10 are indicated by (-), (+), (++), and (+++), respectively)
- Activity class, 11b,18-diOHase [5]: ++ (Percentages 0, >0 and ≤1, >1 and ≤10, and >10 are indicated by (-), (+), (++), and (+++), respectively)
- Activity class, 11b,18-diOHase,18-oxidase [5]: - (Percentages 0, >0 and ≤1, >1 and ≤10, and >10 are indicated by (-), (+), (++), and (+++), respectively)
- Activity class, 11b-OHase [5]: +++ (Percentages 0, >0 and ≤1, >1 and ≤10, and >10 are indicated by (-), (+), (++), and (+++), respectively)
- Activity class, 11b,18-diOHase [6]: ++ (Percentages 0, >0 and ≤1, >1 and ≤10, and >10 are indicated by (-), (+), (++), and (+++), respectively)
- Activity class, 11b,18-diOHase,18-oxidase [6]: + (Percentages 0, >0 and ≤1, >1 and ≤10, and >10 are indicated by (-), (+), (++), and (+++), respectively)
- Activity class, 11b-OHase [6]: +++ (Percentages 0, >0 and ≤1, >1 and ≤10, and >10 are indicated by (-), (+), (++), and (+++), respectively)
- Kd [7]: 3.8 µM and 3.81 µM
- Kd [8]: 15.1 µM
- Spectral shift [8]: Type I

SMILES: C[C@]12CCC(=O)C=C1CC[C@@H]1[C@@H]2CC[C@@]2(C)[C@H]1CC[C@]2(O)C(=O)CO [DOF, 11-deoxycortisol]
- kcat, 11β-hydroxylation ([1]; Wild type, DOF to cortisol, DOC to corticosterone): 2.157 s⁻¹
- kcat, 11β-hydroxylation ([2]; Mutant, DOF to cortisol, DOC to corticosterone): 1.51 s⁻¹
- Production of 18-hydroxy cortisol / 18-hydroxy corticosterone (11β,18-dihydroxylation) ([2]; Mutant): did not produce
- kcat, 11β,18-diOHase ([2]; Mutant, product 18OH-F (from DOF) or 18OH-B (from DOC)): 0 s⁻¹
- Kd [7]: 3.3 µM and 3.31 µM
- Kd [8]: 21.2 µM
- Spectral shift [8]: Type I
